Measured values from US9440966B2, “Compounds for treatment of metabolic syndrome” (SJT MOLECULAR RESEARCH, S.L., priority 2011, dated 2016).

Columns and labels:
[1] = Body weight in SHR hypertensive rats; assay type: in vivo, Male SHR; details: oral once a day 5, 10 then 15 mg/kg
Protocol: (§1) Male SHR were provided by Charles River Laboratories (USA). Until the experiments were carried out, the animals have had free access to feed and water. The room temperature was kept at 22±2° C. and the light/dark cycle was of 12 hours. All procedures were submitted to the Animal Experimentation Ethics Committee.
Distinct rat groups were orally treated, once a day, with 5 mg/kg of compound 5a during the first 4 days, 10 mg/kg during the next 4 days and 15 mg/kg until the end of the treatment period or vehicle (control) for the same days. Similarly, another rat group received metformin (reference drug used for lowering glucose serum levels) in a 300 mg/kg dose, orally, from day 1 to the end of the treatment. Rats were weighted in a CHYO MK2000B precision weight chamber.

[2] = tested on: Drosophila melanogaster (Oregon-R strain); assay: Toxicology study: larva-to-adult viability and development time; details: in vivo
From the text: The purpose of this study was to test and compare the potential toxic effects of compounds 5a, 6a and 7a on the larva-to-adult viability and development time in a Drosophila melanogaster (Oregon-R) flies. These studies have a relevant predictive role with the aim to anticipate possible adverse toxicological effects that may happen during preclinical studies with animal, preferably mammals. In addition, the data provided are highly quantitative.
Drosophila melanogaster (Oregon-R) flies were obtained by the University of the Balearic Islands (Spain). […] The larvae were seeded on standard food supplemented with the appropriate dose of compounds tested. Each compound was tested at 1, 10, 100, 1000 and 2000 μg/ml dissolved in standard food.
Fly adults were transferred from the serial transfer system to bottles with fresh food for 24 h. Adults 5 days old were placed on egg collecting devices (layers) containing a mixture of agar, water, acetic acid, and ethyl alcohol, with a drop of active yeast on it. Every 2 h., the layer glasses were changed, in this way, the eggs of a glass have similar age, with a maximum difference of 2 h. among them. The glasses of the layers were kept at 25° C. for at least 22 h. in Petri dishes until larvae hatched. Fifty larvae were picked with a lancet under a stereoscopic microscope and were seeded into 10×2 cm vials with 5 ml food. Vials were supplemented with 4a, 5a and 7a at 1, 10 and 100 μg/ml. As positive control we used cupric acetate (toxic) at 350 μg/ml.
The number of adult flies which emerged from each vial was counted daily until the exhaustion of the culture. The parameters studied were the larvae-to-adult viability (V) and development time.
Viability is expressed as V=NA/NL, where NL is the input number of larvae ([…] in our case) and NA the output number of adults emerging from these NL larvae. Development time was measured in days by the formula DT=ΣNidi/ΣNi where Ni is the number of flies emerging on the day di after the larvae were placed in the medium.
The data are expressed as the mean±SEM values from 3 independent experiments involving triplicate vials at the number of flies indicated.

[3] = tested on: female Swiss mice; assay: Acute oral toxicology study in a mice model; assay type: in vivo; details: oral 2000 mg/kg single dose, observation for 14 days
Protocol: The experiments were conducted using female Swiss mice (20-30 g), housed under a 12-h light-dark cycle, with controlled humidity (60-80%), and temperature (22±1° C.). Food and water were freely available to the mice.
Female mice (n=6) were orally (2000 mg/kg) administered with a single dose of 4a, 5a, and 7a for the observation of acute signs of toxicity until 14 days. […] The observations comprised the behavior and manifestations of the toxic symptoms, and were carried out according to the Guidelines of the Organization for Economic Cooperation and Development (OECD, 2008).
All compounds were dissolved in sterile saline and were administered by oral gavage to mice based in the weight, for example 20 g received 20 μL.
The data are expressed as mean±S.E.M. of experiments. Statistical significance was determined through one-way analysis of variances (ANOVA), followed by either Newman-Keuls test. A p<0.05 was considered statistically significant. Graphs were drawn and statistical analysis was carried out using GraphPad Prism version 5.00 for Windows (GraphPad Software, San Diego, Calif., USA).

[4] = tested on: SHR hypertensive rats; assay: Plasma cholesterol levels test in SHR hypertensive rats; assay type: in vivo, Male SHR; details: 25 days of treatment (15 mg/Kg) oral, effect more pronounced for 5a and 7a
Protocol: (§2) Distinct rat groups were orally treated, once a day, with 5 mg/kg of compounds 4a or 5a or 6a during the first 4 days, 10 mg/kg during the next 4 days and 15 mg/kg until the end of the treatment period or vehicle (control) for the same days. Similarly, another rat group received metformin (MET) (reference drug used for lowering glucose serum levels) in a 300 mg/kg dose, orally, from day 1 to the end of the treatment. Plasma cholesterol levels were measured in triplicate 12 hours after drug administration by the cholesterol oxidase/peroxidase method (BioSystems S.A, Barcelona, Spain). Blood samples were obtained by femoral vein punction. This method was chosen because of its noninvasive character, enabling daily measurements with the same rats throughout the entire treatment.
as §1
as §2, with “metformin” for “metformin (MET)”, “Blood pressure was” for “Plasma cholesterol levels were”, “4” for “12”, “administration in warmed warmed, restrained, conscious rats” for “administration”, “tail-cuff” for “cholesterol oxidase/peroxidase”, “with a computerized oscillometric system recorder (Nyprem, Cibertec).” for “(BioSystems S.A, Barcelona, Spain). Blood samples were obtained by femoral vein punction.”

COc1ccc(-c2nc(C(=O)NCCCN)cc3c2[nH]c2ccccc23)cc1 [Compound 5a, N(-propylamine)-1-benzosubstituted-β-carboline-3-carboxamide]
SHR body weight compared to control untreated rats [1]: statistically significant effect in lowering SHR body weight | larvae-to-adult viability and development time [2]: not affected | mortality or behavioral disorders (acute signs of toxicity) [3]: did not produce mortality or any behavioral disorders | plasma cholesterol levels [4]: inhibition of plasma cholesterol levels
